# Experimental data reported in patent US11337449B2, “Compositions and their use” (NESTEC S.A., priority 2015, dated 2022).
# Experiments:
# [1] = test system: brain myelination (myelin water fraction); assay: Cross-sectional correlation of infant formula nutrient content with brain myelination (myelin water fraction, mcDESPOT MRI); assay type: in vivo, human; conditions: children up to 5 years fed infant formulas
# Description: MRI (Magnetic Resonance Imaging): MRI brain scans of infants and children between 0 and 5 years were acquired using a white matter imaging technique. This technique provides a quantitative measure, the Myelin Water Fraction (MWF), which is a surrogate marker of myelin content in the brain. When mapped as a function of time across early childhood, myelination trajectories can be generated.
# Infant formula composition: six infant formulas fed to infants participating in a study were analyzed for their composition/level of myelin-relevant nutrients.
# Each infant was scanned using the mcDESPOT (multicomponent Driven Equilibrium Single Pulse Observation of T1 and T2) white matter imaging technique Deoni et al. (Magn. Reson. Med. 2008, 60:1372-1387), which provides a quantitative measure of the myelin water fraction (MWF)—a measure of myelin content—at each point throughout the brain. All infants were scanned during natural (i.e. non-sedated) sleep using acoustically-muffled mcDESPOT imaging protocols. Total imaging times ranged from 19 minutes for the youngest toddlers to 24 minutes for the older 4 year-old children.
# Following image alignment, non-brain signal removal, and correction for main and transmit magnetic field (B0 and B1) inhomogeneities, a three-pool signal model (comprising the myelin-associated water; intra-extra axonal water; and a non-exchanging free-water pool) was fit to the mcDESPOT data to derive voxel-wise MWF maps.
# Each child's map was then non-linearly aligned to a study specific template. White matter masks, corresponding to 5 bilateral regions (frontal, temporal, occipital, parietal, and cerebellar WM) as well as the body, genu, and splenium of the corpus callosum were created from common databases, registered to the common template, and superimposed onto each child's MWF map. Mean values for each region were then determined for each child and used for subsequent developmental analysis and trajectory modeling.
# From the cohort described above, children up to 5 years of age that were fed different infant formulas during infancy were included in a large correlation analysis to examine the relationship between formula nutrient composition and brain myelination. The 6 most frequently used formulas in that cohort were analyzed for their nutritional composition. A single general linear model (GLM) was constructed that modeled all quantified nutrients and child age.
# Spearman rank correlations were then calculated between the nutrient content and myelin content value (adjusted for child age) at each image voxel, or point within the brain. Significance was defined as p<0.05 corrected for type 1 error using a cluster based correction approach. An association or trend was defined as p<0.15. […] To reduce the number of nutritional components in the model, we examined the inter-nutritional correlation. Using a conservative threshold of 0.9, we excluded nutritional components that were highly correlated with each other across the various formulas.
# [2] = test system: neural progenitor cell (NPCs) from E14 mouse neocortex; assay: Differentiation assay: quantification of neuronal and glial marker expression in monolayer NPC culture; assay type: cell-based; conditions: 9 d culture; for astrocyte cell density (astrocytic): GFAP normalized to DAPI
# Description: Generation of neural progenitor cell (NPCs) libraries: dissociation of E14 mouse neocortex E14 pup brains were harvested and placed in ice cold DPBS(1×)+10% Pen/Strep, then they were dissected using a dissecting microscope. From each pup, one brain hemisphere was placed in 2 ml of Neurobasal media/10% P/S/10× Hepes and another brain hemisphere was placed in another tube. The tissue from each tube was aseptically and manually dissociate into single cells, neurobasal complete medium was added and centrifuged at […] for 5 min. The tissue was then re-suspended in neurobasal complete media with GF and placed in a corning suspension culture dish 100 mm×20 mm (#430591). […] Plating Cells in 24 Well Plate for Monolayer Differentiation or EdU Incorporation Assays 24 well glass bottom plates (Mat Tek […]-1.0-13-F Case, glass bottom 24 well plates) were coated with poly-L-ornithin (Sigma P4957) and Fibronection (Sigma F1141) before use in the assay below. Cells were plated (10,000 cells per well) in Complete media with GF for 24 hours (500 ul per well). […] Differentiation Assay: Quantification of Neuronal, Glial and NPC Marker Expression After 24 hours, it was ensured that cells were attached to the plate, then the medium was carefully removed. […] Note: medium contains no GF. […] The cells were culture for 9 d in media plus 2% Nu Serum, the medium was changed every 2nd day. For fixation and subsequent immunohistochemical analysis the medium was removed, the cells were rinsed once with 1×PBS for 5 min, and fixed with 4% PFA in 1×PBS for 15 min at 4° C. The cells were then washed twice with 1×PBS for 5 min, left in 1×PBS, wrapped in foil and left overnight at 4C, or they were immediately primary antibody staining was carried out. PBS was removed and enough AB staining solution (1% Goat serum, 1×PBS, and 0.1% triton X) was added to cover the bottom, the block was kept at room temp for 1 hour. Primary antibody dilutions were made in appropriate amount of AB staining solution, 250 ul per well (the antibodies were only kept out on ice for a short time, mouse anti-MAP2 or TUJ1 1:500 (neuron marker), rabbit anti-GFAP (glial marker) 1:1000, chicken anti-Nestin CFP (EGFP antibody (progenitor cell marker)) 1:1000. AB staining solution was removed and a solution of primary antibodies was added to each chamber. The cells were wrapped in foil and kept overnight 4° C. The cells were then washed with 400 ul of AB staining solution for 5 min once to remove primary antibodies. Secondary antibody solutions were made (enough for 250 ul of each chamber) (Goat anti-mouse alexa 488 1:2000, anti-rabbit Cy3 (1:500), anti-chicken alexa 647 1:500, and 1:5000 Dapi). The cells were incubated at room temp for 1 hour in the dark and washed 2 time in AB staining solution for five mins. They were then kept at 4° C. or Imaged using a GE Cytell imager or LSM 710, Zeiss confocal microscope and analyze with ImageJ software (National Institutes of Health). Microtubule-Associated Protein 2 (MAP2), Neuronal Beta-Tubulin III(TuJ1), Glial Fibrillary Acidic Protein (GFAP), and Nestin CFP (EGFP Antibody). Each marker expression was measured on collected images (integrated density measure in ImageJ) and normalized to DAPI fluorescence, marking all nuclei (integrated density measure). Octanoic Acid were labeled with neuronal beta-tubulin III (TuJ1), subsequent compounds were labeled with Microtubule-associated protein 2 (MAP2).
# [3] = test system: neural progenitor cell (NPCs) from E14 mouse neocortex; assay: Neurosphere counts in 96-well plates; assay type: cell-based; conditions: Low (Dose 1: 10 nM); cells grown 2 days
# Description: Generation of neural progenitor cell (NPCs) libraries:
# E14 pup brains were harvested and placed in ice cold DPBS(1×)+10% Pen/Strep, then they were dissected using a dissecting microscope. From each pup, one brain hemisphere was placed in 2 ml of Neurobasal media/10% P/S/10× Hepes and another brain hemisphere was placed in another tube.
# The tissue from each tube was aseptically and manually dissociate into single cells, neurobasal complete medium was added and centrifuged at 130G for 5 min. The tissue was then re-suspended in neurobasal complete media with GF and placed in a corning suspension culture dish 100 mm×20 mm (#430591). Cells were passage twice using a 1:3 ratio, after what they were centrifuged (130 g 5 min), resuspended in freezing media (10% DMSO and neurobasal complete media, no GF) and frozen in liquid nitrogen (LN2).
# Plating Cells in 96-Well Plates for Neurosphere Counts and Diameters Only
# 3-4 mLs of cells were taken out of the tilted plate and add to a 15 ml conical. Some of the remaining media was used to rinse down the plate. All remaining media was drawn up and put into a 15 ml conical tube, and Spun at 130G for 5 min. All media was removed. […]
# 1. […] Imaging was carried out using a GE Cytell imager or LSM 710, Zeiss confocal microscope and the diameters of neurospheres with ImageJ software (National Institutes of Health) was analysed.
# [4] = test system: neural progenitor cell (NPCs) from E14 mouse neocortex; assay: Monolayer culture NPC proliferation assay (EdU incorporation / DAPI); assay type: cell-based; conditions: lowSM (Dose 1: 10 nM); 3 days culture
# Description: Monolayer Culture NPC Proliferation Assay (Incorporation of EdU—S Phase Marker)
# After 24 h, it was ensured that cells had attached to the plate then the medium was carefully removed. 500 μL of compound media plus GF. was added. The cells were cultured for 3 days in appropriate media.
# Control and compound media was made with #2 media and contains 29 uM Choline, Low (5 uM) and medium (70 uM) choline media was made with #3 media.
# EDU incorporation was measured using Click-IT® EdU Alexa Fluor® 555 Imaging Kit (Life technologies, #c10338).
# At the end of day 3 EdU was added to each well at 10 μM for 30 minutes prior to fixation.
# For fixation and subsequent immunohistochemical analysis, the medium was removed, the cells were rinsed once with 1×PBS for 5 min, and fixed with 4% PFA in 1×PBS for 15 min at 4° C., then the cells were washed twice with 1×PBS for 5 min, left in 1×PBS, wrapped in foil and leave overnight at 4° C., or staining was proceeded with.
# PBS was removed and enough AB staining solution (1% Goat serum, 1×PBS, and 0.1% triton X) added to cover the bottom, the block was kept at room temp for 1 hour. The cells were stained for EDU. The cells were Incubated for 30 min at room temp, in the dark. The cells were washed with 1×PBS and stained with Dapi 1:5000 ul for 15 min. […]
molecule,measurement,setting,value
"CCCCC/C=C\C/C=C\C/C=C\C/C=C\CCCC(=O)O [AA, arachidonic acid]",association of nutrient with myelination (myelin water fraction) over time in the brain,[1],an association with myelination (myelin water fraction) was observed over time in the brain
"CCCCCCCC(=O)O [Octanoic acid, Octanoic Acid]",astrocyte cell density (astrocytic),[2]; HighOA (Dose 3: 250 μM),7.9
same,Neuronal Cell density (Neuronal),"[2]; HighOA (Dose 3: 250 μM), TuJ1 normalized to DAPI",1.7
same,astrocyte cell density (astrocytic),[2]; lowOA (Dose 1: 10 μM),3.7
same,Neuronal Cell density (Neuronal),"[2]; lowOA (Dose 1: 10 μM), TuJ1 normalized to DAPI",1.2
same,astrocyte cell density (astrocytic),[2]; medOA (Dose 2: 50 μM),6.1
same,Neuronal Cell density (Neuronal),"[2]; medOA (Dose 2: 50 μM), TuJ1 normalized to DAPI",1.8
"CCCCCCCCCCCCCCCCCC(=O)O [Stearic acid, Stearic Acid]",astrocyte cell density (astrocytic),[2]; highSA (Dose 3: 10 μM),0.85
same,Neuronal Cell density (Neuronal),"[2]; highSA (Dose 3: 10 μM), MAP2 normalized to DAPI",0.64
same,astrocyte cell density (astrocytic),[2]; lowSA (Dose 1: 100 nM),0.68
same,Neuronal Cell density (Neuronal),"[2]; lowSA (Dose 1: 100 nM), MAP2 normalized to DAPI",0.54
same,astrocyte cell density (astrocytic),[2]; medSA (Dose 2: 1 μm),0.81
same,Neuronal Cell density (Neuronal),"[2]; medSA (Dose 2: 1 μm), MAP2 normalized to DAPI",0.66
[Ca+2] [calcium],association of nutrient with myelination (myelin water fraction) over time in the brain,[1],an association with myelination (myelin water fraction) was observed over time in the brain
[Mg+2] [magnesium],association of nutrient with myelination (myelin water fraction) over time in the brain,[1],an association with myelination (myelin water fraction) was observed over time in the brain
[P] [phosphorus],association of nutrient with myelination (myelin water fraction) over time in the brain,[1],an association with myelination (myelin water fraction) was observed over time in the brain
[Zn] [zinc],association of nutrient with myelination (myelin water fraction) over time in the brain,[1],an association with myelination (myelin water fraction) was observed over time in the brain
Sphingomyelin,"number of neurospheres, Average (Mean)",[3],94
same,neuronal proliferation (DAPI),[4],280
same,association of nutrient with myelination (myelin water fraction) over time in the brain,[1],an association with myelination (myelin water fraction) was observed over time in the brain
iron,association of nutrient with myelination (myelin water fraction) over time in the brain,[1],an association with myelination (myelin water fraction) was observed over time in the brain
phosphatidylcholine,association of nutrient with myelination (myelin water fraction) over time in the brain,[1],an association with myelination (myelin water fraction) was observed over time in the brain
phosphatidylinositol,association of nutrient with myelination (myelin water fraction) over time in the brain,[1],an association with myelination (myelin water fraction) was observed over time in the brain
vitamin B12,association of nutrient with myelination (myelin water fraction) over time in the brain,[1],an association with myelination (myelin water fraction) was observed over time in the brain
